In ChEMBL document CHEMBL5244223, “l,8-Naphthalimide based DNA intercalators and anticancer agents. A systematic review from 2007 to 2017” (Eur J Med Chem, 2018):
Converted amounts (≈) assume the structure as drawn.

What was measured:
HCT-116 = assay: Antiproliferative activity against human HCT-116 cells assessed as inhibition of cell proliferation incubated for 48 hrs by MTT assay; format: functional, cell-based; settings: HCT-116, 48 h
[1] = Antiproliferative activity against human QSG7701 cells assessed as inhibition of cell proliferation incubated for 48 hrs by MTT assay; format: toxicity, cell-based
K562 [2] = assay: Antiproliferative activity against human K562 cells assessed as inhibition of cell proliferation incubated for 48 hrs by MTT assay; format: functional, cell-based; settings: K562, 48 h
MDA-MB-231 = assay: Antiproliferative activity against human MDA-MB-231 cells assessed as inhibition of cell proliferation incubated for 48 hrs by MTT assay; format: functional, cell-based; settings: MDA-MB-231, 48 h
SMMC-7721 = assay: Antiproliferative activity against human SMMC-7721 cells assessed as inhibition of cell proliferation incubated for 48 hrs by MTT assay; format: functional, cell-based; settings: SMMC-7721, 48 h
HepG2 = assay: Antiproliferative activity against human HepG2 cells assessed as inhibition of cell proliferation incubated for 48 hrs by MTT assay; format: functional, cell-based; settings: HepG2, 48 h
HeLa [3] = assay: Cytotoxicity against human HeLa cells assessed as inhibition of cell growth incubated for 48 hrs by MTT assay; format: functional, cell-based
A549 = assay: Cytotoxicity against human A549 cells assessed as inhibition of cell growth incubated for 48 hrs by MTT assay; format: functional, cell-based; settings: A549, 48 h
K562 [4] = assay: Cytotoxicity against human K562 cells assessed as inhibition of cell growth incubated for 48 hrs by MTT assay; format: functional, cell-based; settings: K562, 48 h
CCRF-CEM = assay: Antiproliferative activity against human CEM cells assessed as inhibition of cell proliferation incubated for 48 hrs by coulter counter assay; format: functional, cell-based
HeLa [5] = assay: Antiproliferative activity against human HeLa cells assessed as inhibition of cell proliferation incubated for 48 hrs by coulter counter assay; format: functional, cell-based
L1210 = assay: Antiproliferative activity against mouse L1210 cells assessed as inhibition of cell proliferation incubated for 48 hrs by coulter counter assay; format: functional, cell-based; settings: L1210, 48 h
[6] = Antiproliferative activity against human HMEC-1 cells assessed as inhibition of cell proliferation incubated for 48 hrs by coulter counter assay; format: toxicity, cell-based
Calf thymus DNA = assay: Binding affinity to calf thymus DNA assessed as DNA intercalation by measuring change in melting temperature by thermal denaturation assay; format: nucleic-acid assay; settings: Bos taurus
Pseudomonas aeruginosa = assay: Antibacterial activity against Pseudomonas aeruginosa MTCC 741 assessed as inhibition of bacterial growth by agar well diffusion assay; format: functional
Staphylococcus aureus = assay: Antibacterial activity against Staphylococcus aureus MTCC 96 assessed as inhibition of bacterial growth by agar well diffusion assay; format: functional
Escherichia coli = assay: Antibacterial activity against Escherichia coli MTCC 443 assessed as inhibition of bacterial growth by agar well diffusion assay; format: functional
[7] = test system: Staphylococcus epidermidis; assay: Antibacterial activity against Staphylococcus epidermidis MTCC 435 assessed as inhibition of bacterial growth by agar well diffusion assay; format: functional
[8] = Cytotoxicity against human QSG7701 cells assessed as inhibition of cell growth incubated for 48 hrs by MTT assay; format: toxicity, cell-based

| Compound | IC50 (CCRF-CEM) [µM] | IC50 (HeLa [5]) [µM] | IC50 (L1210) [µM] | IC50 at 48 h [6] [µM] | further results |
| --- | --- | --- | --- | --- | --- |
| CN(C)CCN1C(=O)c2cccc3cc(NC(=O)NCCCNCCCCN)cc(c23)C1=O | – | – | – | – | IC50 (HCT-116): > 50 µM; IC50 at 48 h [1]: > 50 µM; IC50 (K562 [2]): > 50 µM; IC50 (MDA-MB-231): > 50 µM; IC50 (SMMC-7721): > 50 µM; IC50 (HepG2): > 50 µM |
| CN(C)CCN1C(=O)c2cccc3cc(NC(=O)CN)cc(c23)C1=O | – | – | – | – | IC50 (HeLa [3]): 21.5 µM; IC50 (A549): 4.7 µM; IC50 (K562 [4]): 8.5 µM |
| CCOP(=O)(CC(=O)NCn1cc(CN2C(=O)c3cccc4cc([N+](=O)[O-])cc(c34)C2=O)nn1)OCC | > 250 | > 250 | > 250 | > 250 | – |
| CCOP(=O)(CC(O)Cn1cc(CN2C(=O)c3cccc4cc([N+](=O)[O-])cc(c34)C2=O)nn1)OCC (stereo unspecified) | > 250 | > 250 | > 250 | > 250 | – |
| CCOP(=O)(CCCn1cc(CN2C(=O)c3cccc4c(Br)ccc(c34)C2=O)nn1)OCC | > 250 | > 250 | > 250 | > 250 | – |
| CCOP(=O)(Cn1cc(CN2C(=O)c3cccc4cccc(c34)C2=O)nn1)OCC | > 250 | > 250 | > 250 | > 250 | – |
| CCOP(=O)(CCCCn1cc(CN2C(=O)c3cccc4c(Br)ccc(c34)C2=O)nn1)OCC | > 250 | > 250 | > 250 | > 250 | – |
| O=C1c2cccc3cccc(c23)C(=O)N1c1nc(-c2cc3cc(Br)cc(Br)c3oc2=O)cs1 | – | – | – | – | ΔTm (Calf thymus DNA): 0.1 °C; MIC (Pseudomonas aeruginosa): 18.8 µg/mL (≈ 32.2 µM); MIC (Staphylococcus aureus): 18.8 µg/mL (≈ 32.2 µM); MIC (Escherichia coli): 18.8 µg/mL (≈ 32.2 µM); MIC [7]: 18.8 µg/mL (≈ 32.2 µM) |
| NCCCNCCCCNCCCN1C(=O)c2cccc3cccc(c23)C1=O | – | – | – | – | IC50 at 48 h [8]: > 50 µM |
| O=C1c2ccc3c4c(ccc(c24)C(=O)N1c1nc(-c2cc4cc(Cl)ccc4oc2=O)cs1)C(=O)N(c1nc(-c2cc4cc(Cl)ccc4oc2=O)cs1)C3=O | – | – | – | – | ΔTm (Calf thymus DNA): 24.3 °C; MIC (Pseudomonas aeruginosa): 18.8 µg/mL (≈ 23.7 µM); MIC (Staphylococcus aureus): 18.8 µg/mL (≈ 23.7 µM); MIC (Escherichia coli): 18.8 µg/mL (≈ 23.7 µM); MIC [7]: 18.8 µg/mL (≈ 23.7 µM) |
| CCOP(=O)(CCn1cc(CN2C(=O)c3cccc4c(Br)ccc(c34)C2=O)nn1)OCC | > 250 | > 250 | > 250 | > 250 | – |
| O=C1c2ccc3c4c(ccc(c24)C(=O)N1c1nc(-c2cc4cc(Cl)cc(Cl)c4oc2=O)cs1)C(=O)N(c1nc(-c2cc4cc(Cl)cc(Cl)c4oc2=O)cs1)C3=O | – | – | – | – | ΔTm (Calf thymus DNA): 0.1 °C; MIC (Pseudomonas aeruginosa): 18.8 µg/mL (≈ 21.8 µM); MIC (Staphylococcus aureus): 18.8 µg/mL (≈ 21.8 µM); MIC (Escherichia coli): 18.8 µg/mL (≈ 21.8 µM); MIC [7]: 18.8 µg/mL (≈ 21.8 µM) |
| O=C1c2cccc3cccc(c23)C(=O)N1c1nc(-c2cc3ccccc3oc2=O)cs1 | – | – | – | – | ΔTm (Calf thymus DNA): 0.1 °C; MIC (Pseudomonas aeruginosa): 18.8 µg/mL (≈ 44.2 µM); MIC (Staphylococcus aureus): 18.8 µg/mL (≈ 44.2 µM); MIC (Escherichia coli): 18.8 µg/mL (≈ 44.2 µM); MIC [7]: 18.8 µg/mL (≈ 44.2 µM) |
| CN(C)CCN1C(=O)c2cccc3cc(NC(=O)CCCCCNC(=O)C(Cl)Cl)cc(c23)C1=O | – | – | – | – | IC50 (HeLa [3]): 21.5 µM; IC50 (A549): 4.7 µM; IC50 (K562 [4]): 8.5 µM |
| CCOP(=O)(CC(=O)NCn1cc(CN2C(=O)c3cccc4cccc(c34)C2=O)nn1)OCC | > 250 | > 250 | > 250 | > 250 | – |
| CCOP(=O)(CCOCCn1cc(CN2C(=O)c3cccc4c(Br)ccc(c34)C2=O)nn1)OCC | > 250 | > 250 | > 250 | > 250 | – |
| CCOP(=O)(CCn1cc(CN2C(=O)c3cccc4cccc(c34)C2=O)nn1)OCC | > 250 | > 250 | > 250 | > 250 | – |
| CN(C)CCN1C(=O)c2cccc3cc(NC(=O)CCCNC(=O)C(Cl)Cl)cc(c23)C1=O | – | – | – | – | IC50 (HeLa [3]): 21.5 µM; IC50 (A549): 4.7 µM; IC50 (K562 [4]): 8.5 µM |
| CCOP(=O)(CCOCn1cc(CN2C(=O)c3cccc4c(Br)ccc(c34)C2=O)nn1)OCC | > 250 | > 250 | > 250 | > 250 | – |
